Results as given in patent US4031259A, “Process of preparing nutritive sweetening compositions” (General Foods Corporation, priority 1975, dated 1977).
Where a SMILES comes first, the peptide text is derived from it.

How the values were obtained:
[1] = as much as; cited from earlier work
[2] = Rate of solubility: time to complete dissolution in room temperature distilled water (10 ml, pH 5.7, constant stirring); Solubility Factor derived from it; type: physicochemical; details: APM alone (control); for Rate of Solubility (time until complete dissolution): in 10 ml room temperature distilled water, pH 5.7, magnetic stirrer, B3: incomplete dissolution after this time
Protocol: The following represents a broad ratio of systems tested in order to evaluate the effect protein hydrolysates have on the rate of solubility of APM.
All systems were prepared by dissolving the ingredients in water and freeze-drying. Evaluations were made in room temperature distilled water (10 ml) having a pH of 5.7 with constant stirring by a magnetic stirrer. The time was clocked from the instant the powder hit the water until complete dissolution.
Samples A1 - A4 consisted of 1 g. each in 10 ml; samples B1 - B4 (controls) consisted of the amount indicated, also in 10 ml., the total amount of APM in the controls being equivalent to the respective test samples (A1 - A4). Where applicable, the ratio expressed is of APM to soy isolate respectively.
A convenient way of expressing the change in the solubility rate of a given amount of sweetener after combining with protein hydrolysate and dried is called the "Solubility Factor."
This is expressed as follows: [formula] the higher the SF value, the more appreciable the improvement in solubility.

| Rate of Solubility (time until complete dissolution) [2] [min] | Structure (SMILES) | further results |
| --- | --- | --- |
| – | COC(=O)[C@H](Cc1ccccc1)NC(=O)[C@@H](N)CC(=O)O [APM, L-aspartyl-L-phenylalanine methyl ester] (H-Asp-Phe-OMe) | sweetness relative to sucrose [1]: ≤ 200 times as sweet as sucrose |
| 7 | COC(=O)[C@H](Cc1ccccc1)NC(=O)[C@@H](N)CC(=O)O [Sample B1, L-aspartyl-L-phenylalanine methyl ester] (H-Asp-Phe-OMe) | – |
| 11 | COC(=O)[C@H](Cc1ccccc1)NC(=O)[C@@H](N)CC(=O)O [Sample B2, L-aspartyl-L-phenylalanine methyl ester] (H-Asp-Phe-OMe) | – |
| > 50 | COC(=O)[C@H](Cc1ccccc1)NC(=O)[C@@H](N)CC(=O)O [Sample B3, L-aspartyl-L-phenylalanine methyl ester] (H-Asp-Phe-OMe) | – |
| – | COC(=O)[C@H](Cc1ccccc1)NC(=O)[C@@H](N)CC(=O)O [Sample B4, L-aspartyl-L-phenylalanine methyl ester] (H-Asp-Phe-OMe) | Rate of Solubility (incomplete dissolution after) ([2]; 200 mgs. in 10 ml room temperature distilled water, pH 5.7): > 1 h |
